The values that follow come from paper PMC7640639 (Journal of medicinal chemistry, 2019).

Read-outs that look alike come from different tables or passages of the source. Where only a bound is given, the exact number is not on record here.

The subject of one series is HT-22 cells. The experiment in a line: Neuroprotection against glutamate-induced oxidative stress in HT-22 cells. The format is cell-based, mouse.
Another series deals with liver. Particulars: mouse, in vivo, ip, 3 mg/kg.
The target of series [1] is T1, hCB2R (Homo sapiens, UniProt P34972). Particulars: calcium mobilization. For orientation: Calcium flux is commonly read through the fluorescence of an indicator in the cells.
In a further series the target is hAChE (Homo sapiens, UniProt P22303). In kind it is biochemical.
Another series deals with Aβ42 (Homo sapiens, UniProt P05067). In words: Inhibition of Aβ42 self-aggregation, thioflavin T fluorescence assay. The format is biochemical. Particulars: 50 μM inhibitor, 50 μM Aβ42 (1:1).
Series [2] addresses hAChE-induced Aβ40 aggregation (Homo sapiens, UniProt P22303). The format is biochemical. Particulars: [I] = 100 μM; Aβ40/hAChE 100:1.
The target in the next series is hCB1R (Homo sapiens, UniProt P21554). Particulars: CHO-K1 cells, hCB1 and Gαq16.
The test system of series [3] is U266 myeloma cells (cAMP-regulated MIF and STAT-3 genes, hCB2R).
Series [4] concerns Aβ25–35-induced learning impairments in mice. Particulars: mouse, in vivo, ip.
The target of the next series is μ-opioid receptor (MOR) (Homo sapiens, UniProt P35372).
Series [5] deals with murine microglial cell line N9.
Series [6] addresses T1, hCB2R.
Setting [7] is: HT-22 cells, 5 mM glutamate, 24 h, MTT.

T1 sequence (P34972 whole entry): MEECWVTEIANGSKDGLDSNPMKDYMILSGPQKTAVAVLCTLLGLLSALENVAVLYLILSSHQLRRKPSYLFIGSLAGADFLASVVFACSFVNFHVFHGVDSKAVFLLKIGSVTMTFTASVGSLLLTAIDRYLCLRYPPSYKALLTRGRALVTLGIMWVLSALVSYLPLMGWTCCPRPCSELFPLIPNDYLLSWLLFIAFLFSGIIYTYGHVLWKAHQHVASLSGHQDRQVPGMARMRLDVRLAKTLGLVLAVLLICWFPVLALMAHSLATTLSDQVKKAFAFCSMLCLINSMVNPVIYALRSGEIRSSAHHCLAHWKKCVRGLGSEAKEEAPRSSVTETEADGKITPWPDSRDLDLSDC
Aβ42, sequence (P05067 672-713): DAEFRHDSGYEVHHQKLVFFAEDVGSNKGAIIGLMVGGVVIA
μ-opioid receptor (MOR), sequence (P35372 whole entry): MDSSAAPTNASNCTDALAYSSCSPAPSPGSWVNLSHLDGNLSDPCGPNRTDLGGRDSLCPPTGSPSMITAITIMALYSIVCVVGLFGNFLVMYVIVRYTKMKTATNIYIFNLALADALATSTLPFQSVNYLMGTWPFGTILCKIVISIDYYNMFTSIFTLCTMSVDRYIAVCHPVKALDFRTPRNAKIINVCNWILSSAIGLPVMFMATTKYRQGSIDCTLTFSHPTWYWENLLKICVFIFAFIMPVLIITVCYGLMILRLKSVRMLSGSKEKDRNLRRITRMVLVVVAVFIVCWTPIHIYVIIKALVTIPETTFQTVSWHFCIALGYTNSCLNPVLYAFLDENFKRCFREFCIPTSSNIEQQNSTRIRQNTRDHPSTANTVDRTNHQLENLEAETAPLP
hAChE-induced Aβ40 aggregation, sequence (P22303 32-614): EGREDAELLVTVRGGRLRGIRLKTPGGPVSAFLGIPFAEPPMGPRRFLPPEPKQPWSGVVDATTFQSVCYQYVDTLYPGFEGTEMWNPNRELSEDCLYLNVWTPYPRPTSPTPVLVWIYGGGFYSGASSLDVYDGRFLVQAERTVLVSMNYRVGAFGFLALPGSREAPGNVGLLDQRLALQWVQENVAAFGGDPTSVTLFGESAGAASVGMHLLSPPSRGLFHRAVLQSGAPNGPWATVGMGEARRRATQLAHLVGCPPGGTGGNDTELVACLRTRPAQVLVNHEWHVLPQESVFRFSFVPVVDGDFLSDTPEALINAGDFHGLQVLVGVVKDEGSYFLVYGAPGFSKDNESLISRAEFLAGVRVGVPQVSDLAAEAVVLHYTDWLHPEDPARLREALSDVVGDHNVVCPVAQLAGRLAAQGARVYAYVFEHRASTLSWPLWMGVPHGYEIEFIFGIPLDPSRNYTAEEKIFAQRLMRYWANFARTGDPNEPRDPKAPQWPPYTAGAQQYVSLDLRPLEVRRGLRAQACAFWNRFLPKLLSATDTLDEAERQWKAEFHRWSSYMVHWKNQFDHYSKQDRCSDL
hCB1R, sequence (P21554 whole entry): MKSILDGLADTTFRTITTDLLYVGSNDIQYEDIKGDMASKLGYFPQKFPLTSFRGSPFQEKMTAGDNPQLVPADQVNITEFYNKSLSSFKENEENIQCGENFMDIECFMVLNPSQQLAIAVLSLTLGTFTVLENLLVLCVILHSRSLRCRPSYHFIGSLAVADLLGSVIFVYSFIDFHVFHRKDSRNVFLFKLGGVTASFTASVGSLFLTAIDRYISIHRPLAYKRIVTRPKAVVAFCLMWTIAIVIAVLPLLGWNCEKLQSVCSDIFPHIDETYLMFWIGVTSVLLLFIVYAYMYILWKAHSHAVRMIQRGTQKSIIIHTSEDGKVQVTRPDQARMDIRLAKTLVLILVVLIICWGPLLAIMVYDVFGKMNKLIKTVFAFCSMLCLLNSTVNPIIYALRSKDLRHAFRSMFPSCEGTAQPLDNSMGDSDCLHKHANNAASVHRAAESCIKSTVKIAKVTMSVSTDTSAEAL
hAChE, sequence (P22303 32-614): as the sequence (P22303 32-614) above

For the compound `CCOc1ccc(Cc2nc3cc(C(=O)N(CC)CC)ccc3n2CCCCCNc2c3c(nc4ccccc24)CCCC3)cc1` [3d, 2-(4-Ethoxybenzyl)-N,N-diethyl-1-(5-((1,2,3,4-tetrahydroacridin-9-yl)amino)pentyl)-1H-benzo[d]imidazole-5-carboxamide], the “neuroprotective behavior (in words)” value in the series with HT-22 cells is on record as “none”. In addition, in the series on liver, the necrosis positive/specimen was 5/6 and the “necrosis reported area %” value is 5–15%.
Regarding `CCOc1ccc(Cc2nc3cc(C(=O)N(CC)CC)ccc3n2CCCCCCNc2c3c(nc4ccccc24)CCCC3)cc1` [3e, 2-(4-Ethoxybenzyl)-N,N-diethyl-1-(6-((1,2,3,4-tetrahydroacndin-9-yl)amino)hexyl)-1H-benzo[d]imidazole-5-carboxamide], the “behaviour at hCB2R (in words)” value at hCB2R [1] is “partial agonists”. Moreover, the “neuroprotective behavior (in words)” value in the series on HT-22 cells (setting [7]) is “low neuroprotective behavior”. The “Ki′ (inhibition constant for the enzyme-substrate-inhibitor complex), in words” value at hAChE is on record as “submicromolar range”. Further, the “inhibition of Aβ42 self-aggregation (in words)” value on Aβ42 is on record as “strongly inhibited”. Also, the “inhibition of hAChE-induced Aβ40 aggregation (in words)” value in series [2] is on record as “significantly reduce the proaggregating action of hAChE”. Moreover, the “activity at hCB1R (in words)” value at hCB1R was “devoid of activity”. Besides, in series [3], the “MIF and STAT-3 gene expression compared to vehicle” value is recorded as “decreased expression of both genes”. Moreover, the “most effective dose, complete prevention of Aβ25–35 impairments in both tests” value (“most effective dose, complete prevention” below) in series [4] is reported as 0.3 mg/kg.
Regarding `CCOc1ccc(Cc2nc3cc(C(=O)NCCNc4c5c(nc6ccccc46)CCCC5)ccc3n2CCC(C)C)cc1` [4a, 2-(4-Ethoxybenzyl)-1-isopentyl-N-(2-((1,2,3,4-tetrahydroacridin-9-yl)amino)ethyl)-1H-benzo[d]imidazole-5-carboxamide], the “affinity at the μ-opioid receptor (in words)” value on μ-opioid receptor (MOR) is recorded as “significant affinity”. Also, in the series with liver, the necrosis positive/specimen is given as 6/9 and the “necrosis reported area %” value is on record as 5–10%. In addition, in series [5], the “IL1β release and iNOS expression (M1 markers)” value is “significantly decrease”; the “NO release / nitrite accumulation” value was “reduced”; the “TREM2 and TGFβ2 expression (M2 markers)” value is “not reduced”. The “most effective dose, complete prevention” value in series [4] is 1 mg/kg.
Take `CCOc1ccc(Cc2nc3cc(C(=O)NCCCNc4c5c(nc6ccccc46)CCCC5)ccc3n2CCC(C)C)cc1` [4b, 2-(4-Ethoxybenzyl)-1-isopentyl-N-(3-((1,2,3,4-tetrahydroacridin-9-yl)amino)propyl)-1H-benzo[d]imidazole-5-carboxamide]: the “inhibition of Aβ42 self-aggregation (in words)” value against Aβ42 was “quite weak”.
As to `CCOc1ccc(Cc2nc3cc(C(=O)NCCCCNc4c5c(nc6ccccc46)CCCC5)ccc3n2CCC(C)C)cc1` [4c, 2-(4-Ethoxybenzyl)-1-isopentyl-N-(4-((1,2,3,4-tetrahydroacridin-9-yl)amino)butyl)-1H-benzo[d]imidazole-5-carboxamide], the “behaviour at hCB2R (in words)” value on hCB2R [1] is “partial agonists”. For the same compound, the “activity at hCB1R (in words)” value at hCB1R is listed as “devoid of activity”. The “MIF and STAT-3 gene expression compared to vehicle” value in [3] is listed as “decreased expression of both genes”.
With `CCOc1ccc(Cc2nc3cc(C(=O)NCCCCCCNc4c5c(nc6ccccc46)CCCC5)ccc3n2CCC(C)C)cc1` [4e, 2-(4-Ethoxybenzyl)-1-isopentyl-N-(6-((1,2,3,4-tetrahydroacridin-9-yl)amino)hexyl)-1H-benzo[d]imidazole-5-carboxamide], on μ-opioid receptor (MOR), the “affinity at the μ-opioid receptor (in words)” value was “significant affinity”.
For `Cc1c(C(=O)NN2CCCCC2)nn(-c2ccc(Cl)cc2Cl)c1-c1ccc(Cl)cc1` [Rimonabant], the “[3H]CP 55,940 displ. @10 μM hCB2R” value at hCB2R [6] came out at 4%.
On to `CCOc1ccc(Cc2nc3cc(C(=O)NCCSSCCNc4c5c(nc6ccccc46)CCCC5)ccc3n2CCC(C)C)cc1` [compound 8, 2-(4-Ethoxybenzyl)-1-isopentyl-N-(2-((2-((1,2,3,4-tetrahydroacri-din-9-yl)amino)ethyl)disulfaneyl)ethyl)-1H-benzo[d]imidazole-5-carboxamide], for which the “neuroprotection at 5 μM (in words)” value with HT-22 cells (HT-22 cells, 5 mM glutamate, 5 μM compound) is “neuroprotection comparable to the positive control quercetin at 25 μM”. The concentration showing neuroprotection in the series on HT-22 cells (setting [7]) is ≥ 1 µM. Further, on Aβ42, the “inhibition of Aβ42 self-aggregation (in words)” value is recorded as “strongly inhibited”. For the same compound, in the series with liver, the necrosis positive/specimen is 8/11 and the “necrosis reported area %” value is on record as 5–50%. The “inhibition of hAChE-induced Aβ40 aggregation (in words)” value in series [2] is given as “not able to significantly inhibit”. The “most effective dose, complete prevention” value in series [4] is recorded as 0.3 mg/kg.
